Test results from patent US11725000B2, “Apoptosis inhibitors” (National Institute of Biological Sciences, Beijing, priority 2017, dated 2023).

system: U2OS_Bim cells; experiment: Apoptosis inhibition assay (Bim-induced apoptosis, cell viability by ATP level); format: cell-based; conditions: U2OS_Bim cells; estimated based on preliminary results; numbering of Tables 4a/4b; read-out: EC50
Outline: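 Apoptosis was triggered by doxycycline (0.1 μg/mL) induction of Bim, one hour after compound addition to U2OS_Bim cells. Survival was measured after 24 h from cellular ATP (CellTiter-Glo), relative to DMSO, with zVAD at 20 μM as rescue control. Data are duplicate means, some estimated from preliminary results.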

SMILES | EC50
COc1ccc(Cn2cc(-c3cc(C(F)F)nc([S+](C)[O-])n3)ccc2=O)cc1OC (stereo not drawn) [Compound 202, 5-(6-(difluoromethyl)-2-(methylsulfinyl)pyrimidin-4-yl)-1-(3,4-dimethoxybenzyl)pyridin-2 (1H)-one] | < 10 µM
COc1ccc(Cn2cc(-c3cc(CF)nc([S+](C)[O-])n3)ccc2=O)cc1OC (stereo not drawn) [Compound 203, 1-(3,4-dimethoxybenzyl)-5-(6-(fluoromethyl)-2-(methylsulfinyl)pyrimidin-4-yl)pyridin-2 (1H)-one] | < 10 µM
COc1ccc(Cn2cc(-c3cc(-c4ccc[nH]4)nc(S(C)(=O)=O)n3)ccc2=O)cc1OC [Compound 204] | < 10 µM
COc1ccc(Cn2cc(-c3cc(-c4ccc[nH]4)nc([S+](C)[O-])n3)ccc2=O)cc1OC (stereo not drawn) [Compound 205] | < 10 µM
COc1ccc(Cn2cc(-c3cc(C4=CCC=C4)nc([S+](C)[O-])n3)ccc2=O)cc1OC (stereo not drawn) [Compound 209] | < 10 µM
COc1ccc(Cn2cc(-c3cc(-c4ncco4)nc(S(C)(=O)=O)n3)ccc2=O)cc1OC [Compound 211] | < 10 µM
COc1ccc(Cn2cc(-c3cc(-c4cnco4)nc([S+](C)[O-])n3)ccc2=O)cc1OC (stereo not drawn) [Compound 214] | < 10 µM
COc1ccc(Cn2cc(-c3cc(-n4cccc4)nc([S+](C)[O-])n3)ccc2=O)cc1OC (stereo not drawn) [Compound 218] | < 10 µM
COc1ccc(Cn2cc(-c3cc(-n4ccnc4)nc([S+](C)[O-])n3)ccc2=O)cc1OC (stereo not drawn) [Compound 221] | < 10 µM
C[S+]([O-])c1nc(-c2ccc(=O)n(Cc3ccc4ocnc4c3)c2)cc(C(F)(F)F)n1 (stereo not drawn) [Compound 227] | < 10 µM
CS(=O)(=O)c1nc(-c2ccc(=O)n(Cc3ccc4[nH]cnc4c3)c2)cc(C(F)(F)F)n1 [Compound 228] | < 10 µM
C[S+]([O-])c1nc(-c2ccc(=O)n(Cc3ccc4c(c3)OCCO4)c2)cc(C(F)(F)F)n1 (stereo not drawn) [Compound 231] | < 10 µM
CNc1ccc(Cn2cc(-c3cc(C(F)(F)F)nc(S(C)(=O)=O)n3)ccc2=O)cc1NC [Compound 232] | < 10 µM
C[S+]([O-])c1nc(-c2ccc(=O)n(Cc3ccc4c(c3)NCCN4)c2)cc(C(F)(F)F)n1 (stereo not drawn) [Compound 235] | < 10 µM
CNc1ccc(Cn2cc(-c3cc(C(F)(F)F)nc(S(C)(=O)=O)n3)ccc2=O)cc1OC [Compound 236] | < 10 µM
CNc1ccc(Cn2cc(-c3cc(C(F)(F)F)nc([S+](C)[O-])n3)ccc2=O)cc1OC (stereo not drawn) [Compound 237] | < 10 µM
CNc1cc(Cn2cc(-c3cc(C(F)(F)F)nc(S(C)(=O)=O)n3)ccc2=O)ccc1OC [Compound 238] | < 10 µM
CS(=O)(=O)c1nc(-c2ccc(=O)n(Cc3ccc4c(c3)OCCN4)c2)cc(C(F)(F)F)n1 [Compound 240] | < 10 µM
C[S+]([O-])c1nc(-c2ccc(=O)n(Cc3ccc4nccnc4c3)c2)cc(C(F)(F)F)n1 (stereo not drawn) [Compound 245] | < 10 µM
CS(=O)(=O)c1nc(-c2ccc(=O)n(Cc3ccc4ncccc4c3)c2)cc(C(F)(F)F)n1 [Compound 246] | < 10 µM
C[S+]([O-])c1nc(-c2ccc(=O)n(Cc3ccc4ncccc4c3)c2)cc(C(F)(F)F)n1 (stereo not drawn) [Compound 247] | < 10 µM
CS(=O)(=O)c1nc(-c2ccc(=O)n(Cc3ccc4cnccc4c3)c2)cc(C(F)(F)F)n1 [Compound 248] | < 10 µM
C[S+]([O-])c1nc(-c2ccc(=O)n(Cc3ccc4ccncc4c3)c2)cc(C(F)(F)F)n1 (stereo not drawn) [Compound 251] | < 10 µM
CS(=O)(=O)c1nc(-c2ccc(=O)n(CC3=Cc4ccccc4C3)c2)cc(C(F)(F)F)n1 [Compound 254] | < 10 µM
C[S+]([O-])c1nc(-c2ccc(=O)n(Cn3ccc4ccccc43)c2)cc(C(F)(F)F)n1 (stereo not drawn) [Compound 257] | < 10 µM
COc1cn(Cn2cc(-c3cc(C(F)(F)F)nc(S(C)(=O)=O)n3)ccc2=O)cc1OC [Compound 258] | < 10 µM
COc1cn(Cn2cc(-c3cc(C(F)(F)F)nc([S+](C)[O-])n3)ccc2=O)cc1OC (stereo not drawn) [Compound 259] | < 10 µM
CCc1cc(Cn2cc(-c3cc(C(F)(F)F)nc(S(C)(=O)=O)n3)ccc2=O)ccc1OC [Compound 262] | < 10 µM
CCc1ccc(Cn2cc(-c3cc(C(F)(F)F)nc([S+](C)[O-])n3)ccc2=O)cc1OC (stereo not drawn) [Compound 265] | < 10 µM

Other lines, results leading:

EC50 | SMILES
< 10 µM | COc1ccc(Cn2cc(-c3cc(-c4ccco4)nc(S(C)(=O)=O)n3)ccc2=O)cc1OC [Compound 206]
< 10 µM | COc1ccc(Cn2cc(-c3cc(-c4ccco4)nc([S+](C)[O-])n3)ccc2=O)cc1OC (stereo not drawn) [Compound 207]
< 10 µM | COc1ccc(Cn2cc(-c3cc(C4=CCC=C4)nc(S(C)(=O)=O)n3)ccc2=O)cc1OC [Compound 208]
< 10 µM | COc1ccc(Cn2cc(-c3cc(-c4ncco4)nc([S+](C)[O-])n3)ccc2=O)cc1OC (stereo not drawn) [Compound 210]
< 10 µM | COc1ccc(Cn2cc(-c3cc(-c4cnco4)nc(S(C)(=O)=O)n3)ccc2=O)cc1OC [Compound 212]
< 10 µM | COc1ccc(Cn2cc(-c3cc(-c4nccs4)nc([S+](C)[O-])n3)ccc2=O)cc1OC (stereo not drawn) [Compound 213]
< 10 µM | COc1ccc(Cn2cc(-c3cc(-c4cncs4)nc(S(C)(=O)=O)n3)ccc2=O)cc1OC [Compound 215]
< 10 µM | COc1ccc(Cn2cc(-c3cc(-c4cncs4)nc([S+](C)[O-])n3)ccc2=O)cc1OC (stereo not drawn) [Compound 216]
< 10 µM | COc1ccc(Cn2cc(-c3cc(-c4nccs4)nc(S(C)(=O)=O)n3)ccc2=O)cc1OC [Compound 217]
< 10 µM | COc1ccc(Cn2cc(-c3cc(-n4cccc4)nc(S(C)(=O)=O)n3)ccc2=O)cc1OC [Compound 219]
< 10 µM | COc1ccc(Cn2cc(-c3cc(-n4cccn4)nc([S+](C)[O-])n3)ccc2=O)cc1OC (stereo not drawn) [Compound 220]
< 10 µM | COc1ccc(Cn2cc(-c3cc(-n4ccnc4)nc(S(C)(=O)=O)n3)ccc2=O)cc1OC [Compound 222]
< 10 µM | C[S+]([O-])c1nc(-c2ccc(=O)n(Cc3ccc4c(c3)OCO4)c2)cc(C(F)(F)F)n1 (stereo not drawn) [Compound 223]
< 10 µM | CS(=O)(=O)c1nc(-c2ccc(=O)n(Cc3ccc4ocnc4c3)c2)cc(C(F)(F)F)n1 [Compound 224]
< 10 µM | C[S+]([O-])c1nc(-c2ccc(=O)n(Cc3ccc4ocnc4c3)c2)cc(C(F)(F)F)n1 (stereo not drawn) [Compound 225]
< 10 µM | CS(=O)(=O)c1nc(-c2ccc(=O)n(Cc3ccc4scnc4c3)c2)cc(C(F)(F)F)n1 [Compound 226]
< 10 µM | C[S+]([O-])c1nc(-c2ccc(=O)n(Cc3ccc4[nH]cnc4c3)c2)cc(C(F)(F)F)n1 (stereo not drawn) [Compound 229]
< 10 µM | CS(=O)(=O)c1nc(-c2ccc(=O)n(Cc3ccc4c(c3)OCCO4)c2)cc(C(F)(F)F)n1 [Compound 230]
< 10 µM | CNc1ccc(Cn2cc(-c3cc(C(F)(F)F)nc([S+](C)[O-])n3)ccc2=O)cc1NC (stereo not drawn) [Compound 233]
< 10 µM | CS(=O)(=O)c1nc(-c2ccc(=O)n(Cc3ccc4c(c3)NCCN4)c2)cc(C(F)(F)F)n1 [Compound 234]

EC50 | SMILES
< 10 µM | CNc1cc(Cn2cc(-c3cc(C(F)(F)F)nc([S+](C)[O-])n3)ccc2=O)ccc1OC (stereo not drawn) [Compound 239]
< 10 µM | C[S+]([O-])c1nc(-c2ccc(=O)n(Cc3ccc4c(c3)OCCN4)c2)cc(C(F)(F)F)n1 (stereo not drawn) [Compound 241]
< 10 µM | CS(=O)(=O)c1nc(-c2ccc(=O)n(Cc3ccc4c(c3)NCCO4)c2)cc(C(F)(F)F)n1 [Compound 242]
< 10 µM | C[S+]([O-])c1nc(-c2ccc(=O)n(Cc3ccc4c(c3)NCCO4)c2)cc(C(F)(F)F)n1 (stereo not drawn) [Compound 243]
< 10 µM | CS(=O)(=O)c1nc(-c2ccc(=O)n(Cc3ccc4nccnc4c3)c2)cc(C(F)(F)F)n1 [Compound 244]
< 10 µM | C[S+]([O-])c1nc(-c2ccc(=O)n(Cc3ccc4cnccc4c3)c2)cc(C(F)(F)F)n1 (stereo not drawn) [Compound 249]
< 10 µM | CS(=O)(=O)c1nc(-c2ccc(=O)n(Cc3ccc4ccncc4c3)c2)cc(C(F)(F)F)n1 [Compound 250]
< 10 µM | CS(=O)(=O)c1nc(-c2ccc(=O)n(Cc3ccc4cccnc4c3)c2)cc(C(F)(F)F)n1 [Compound 252]
< 10 µM | C[S+]([O-])c1nc(-c2ccc(=O)n(Cc3ccc4cccnc4c3)c2)cc(C(F)(F)F)n1 (stereo not drawn) [Compound 253]
< 10 µM | C[S+]([O-])c1nc(-c2ccc(=O)n(CC3=Cc4ccccc4C3)c2)cc(C(F)(F)F)n1 (stereo not drawn) [Compound 255]
< 10 µM | CS(=O)(=O)c1nc(-c2ccc(=O)n(Cn3ccc4ccccc43)c2)cc(C(F)(F)F)n1 [Compound 256]
< 10 µM | COc1ccn(Cn2cc(-c3cc(C(F)(F)F)nc(S(C)(=O)=O)n3)ccc2=O)c1 [Compound 260]
< 10 µM | COc1ccn(Cn2cc(-c3cc(C(F)(F)F)nc([S+](C)[O-])n3)ccc2=O)c1 (stereo not drawn) [Compound 261]
< 10 µM | CCc1cc(Cn2cc(-c3cc(C(F)(F)F)nc([S+](C)[O-])n3)ccc2=O)ccc1OC (stereo not drawn) [Compound 263]
< 10 µM | CCc1ccc(Cn2cc(-c3cc(C(F)(F)F)nc(S(C)(=O)=O)n3)ccc2=O)cc1OC [Compound 264]
< 10 µM | CCc1ccc(Cn2cc(-c3cc(C(F)(F)F)nc(S(C)(=O)=O)n3)ccc2=O)cc1CC [Compound 266]
< 10 µM | CCc1ccc(Cn2cc(-c3cc(C(F)(F)F)nc([S+](C)[O-])n3)ccc2=O)cc1CC (stereo not drawn) [Compound 267]
< 10 µM | CCOc1cccc(Cn2cc(-c3cc(C(F)(F)F)nc([S+](C)[O-])n3)ccc2=O)c1 (stereo not drawn) [Compound 268]
< 10 µM | CCC(=O)c1cc(-c2ccc(=O)n(Cc3ccc(OC)c(OC)c3)c2)nc(S(C)(=O)=O)n1 [Compound 269, 1-(3,4-dimethoxybenzyl)-5-(2-(methylsulfonyl)-6-propionylpyrimidin-4-yl)pyridin-2 (1H)-one]
< 10 µM | CCC(F)(F)c1cc(-c2ccc(=O)n(Cc3ccc(OC)c(OC)c3)c2)nc(S(C)(=O)=O)n1 [Compound 270, 5-(6-(1,1-difluoropropyl)-2-(methylsulfonyl)pyrimidin-4-yl)-1-(3,4-dimethoxybenzyl)pyridin-2 (1H)-one]
